Paper PMC9578392, “Safety, Tolerability, and Pharmacokinetics of the Novel Antiviral Agent Ensitrelvir Fumaric Acid, a SARS-CoV-2 3CL Protease Inhibitor, in Healthy Adults” (Antimicrobial Agents and Chemotherapy, 2022)
“Also recorded” adds a separate entry of the source. Read-outs that look alike come from different tables or passages of the source.

How the values were obtained:
[1] = Multiple-dose pharmacokinetics (part 2, cohorts F, G, H); format: in vivo, human; details: for GLS mean ratio (90% CI) of AUC0-τ (white/Japanese) / GLS mean ratio (90% CI) of Cmax (white/Japanese): 375/125 mg, cohort H vs F; for Cmax / AUC / Tmax: human, plasma, oral; for Cmax / AUC: geometric mean (%CV); for AUC: read-out: AUC0-τ; for Tmax: median (min, max)
[2] = Effect of food on pharmacokinetics (cohort C, 250 mg crossover); format: in vivo, human; details: for Tmax / AUC(0-inf) / AUC(0-t) / Cmax / half-life: human, plasma, oral, 250 mg; for AUC(0-inf): read-out: AUC0-inf, GLS mean; for AUC(0-t): read-out: AUC0-last, GLS mean; for Cmax: read-out: Cmax, GLS mean; for half-life: read-out: t1/2,z, GLS mean (converted)
Description: In part 1, Japanese participants were randomized to receive placebo or single dose of ensitrelvir (20, 70, 250, 500, 1,000, and 2,000 mg given to cohorts A, B, C, D, E, and J, respectively), suspended in 0.5% methylcellulose, in the fasted state. Additionally, in cohort C, the effect of food on the pharmacokinetics of ensitrelvir was investigated in a 2-group, 2-period crossover design by administering placebo or ensitrelvir (250 mg) in the fasted or fed (high-fat/high-calorie) state. In part 2, Japanese participants were randomized to receive placebo or multiple doses of ensitrelvir, suspended in 0.5% methylcellulose. The multiple-dose regimens were as follows: once-daily doses of ensitrelvir 375 mg on day 1 and 125 mg on days 2 to 5 (cohort F), or 750 mg on day 1 and 250 mg on days 2 to 6 (cohort G) in the fasted state. White participants were randomized to receive placebo or multiple doses of ensitrelvir. The multiple-dose regimens were as follows: once-daily doses of ensitrelvir 375 mg on day 1 and 125 mg on days 2 to 5 (cohort H). Each cohort included 11 participants. In cohort G, the effect of ensitrelvir on the pharmacokinetics of midazolam (syrup) was evaluated in an open label self-controlled crossover design. Midazolam 2 mg alone was administered 2 days prior to initiating ensitrelvir administration (on day −2) and midazolam was coadministered on day 6 with placebo or ensitrelvir in the fasted state to participants following once-daily doses for 5 days of placebo (days 1 to 5) or ensitrelvir (750 mg on day 1 and 250 mg on days 2–5).
Blood and urine samples were collected and analyzed at several time points to determine the concentration of ensitrelvir and midazolam. For single-dose administration, blood samples were collected predose (0 h) and 0.5, 1, 1.5, 2, 2.5, 3, 4, 6, 8, 12, 24, 36, 48, 60, 72, 96, 120, and 144 h postdose on day 1 at 20 mg (cohort A); predose (0 h) and 0.5, 1, 1.5, 2, 2.5, 3, 4, 6, 8, 12, 24, 36, 48, 60, 72, 96, 120, 144, 192, and 336 h postdose on day 1 at 70, 500, 1,000, and 2,000 mg (cohorts B, D, E, and J); and predose (0 h) and 0.5, 1, 1.5, 2, 2.5, 3, 4, 6, 8, 12, 24, 36, 48, 60, 72, 96, 120, and 144, 192, and 336 h postdose on days 1 and 15 at 250 mg (cohort C). Urine samples were collected at 0 to 24, 24 to 48, 48 to 72, 72 to 96, 96 to 120, and 120 to 144 h postdose on day 1 at 20, 70, 500, and 1,000 mg (cohorts A, B, D, and E); and 0 to 24, 24 to 48, 48 to 72, 72 to 96, 96 to 120, and 120 to 144 h postdose on days 1 and 15 at 250 mg (cohort C). For multiple-dose administration, blood samples were collected predose (0 h) and 0.5, 1, 1.5, 2, 2.5, 3, 4, 6, 8, and 12 h postdose on day 1; predose (0 h) on days 2 to 4; and predose (0 h) and 0.5, 1, 1.5, 2, 2.5, 3, 4, 6, 8, 12, and 24 h postdose on day 5 to evaluate the pharmacokinetics of ensitrelvir. Blood samples were also collected predose (0 h) and 0.5, 1, 2, 3, 4, 5, 6, 8, 12, and 24 h postdose on […] to evaluate the pharmacokinetics of midazolam.
Pharmacokinetic parameters were estimated based on the plasma concentration time data for ensitrelvir and midazolam by noncompartmental analysis (Phoenix WinNonlin version 6.2.1, Certara USA Inc., Princeton, NJ, USA). Dose proportionality assessments included the Cmax, area under the plasma concentration-time curve (AUC0-last, AUC0-inf, and AUC0-τ), and dose independency included t1/2,z, terminal elimination rate constant (λz), MRT, CL/F, and Vz/F. Urine pharmacokinetic parameters for ensitrelvir were calculated based on the urine concentrations of ensitrelvir and urine volume with noncompartmental analysis. Feu0-144 was calculated after single-dose administration. Additionally, renal clearance (CLR) was calculated using the cumulative amount of the drug excreted in urine and AUC in plasma for ensitrelvir. […]

SARS-CoV-2 = system: SARS-CoV-2; set-up: method as in PMID 35352927; details: BALB/cAJcl mice; cited from earlier work
CYP3A = test: Drug-drug interaction with midazolam (cohort G); details: ensitrelvir 750/250 mg, from increase in AUC0-inf of midazolam
[3] = 375 mg, F/375/125 mg (Japanese), Day 1, fasted
[4] = 375 mg, H/375/125 mg (white), Day 1, fasted
[5] = 750 mg, G/750/250 mg (Japanese), Day 1, fasted
[6] = F/375/125 mg (Japanese), Day 5, fasted
[7] = G/750/250 mg (Japanese), Day 5, fasted
[8] = H/375/125 mg (white), Day 5, fasted
[9] = Cohort C/250 mg single dose, Fasted
[10] = Cohort C/250 mg single dose, Fed

Q: Which “GLS mean ratio (90% CI) of AUC0-τ (white/Japanese)” value ([1]; day 1) does the source give for `Cn1cnc(Cn2c(=O)[nH]/c(=N\c3cc4cn(C)nc4cc3Cl)n(Cc3cc(F)c(F)cc3F)c2=O)n1` [Ensitrelvir, ensitrelvir fumaric acid] here?
A: Its value is 0.7241 (0.6517–0.8046).

Q: And the “GLS mean ratio (90% CI) of Cmax (white/Japanese)” value ([1]; day 1)?
A: Its value is 0.7699 (0.6738–0.8796).

Q: And the “GLS mean ratio (90% CI) of AUC0-τ (white/Japanese)” value ([1]; day 5)?
A: The value was 0.8645 (0.7740–0.9656).

Q: What about the “GLS mean ratio (90% CI) of Cmax (white/Japanese)” value ([1]; day 5) of the same molecule?
A: Its value is 0.8651 (0.7774–0.9627).

Q: What about the “GLS mean ratio (90% CI) of AUC0-τ, cohort G [750/250 mg] versus F [375/125 mg]” value ([1]; day 1) of the same molecule?
A: The value was 1.6893 (1.4492–1.9692).

Q: And the “GLS mean ratio (90% CI) of Cmax, cohort G [750/250 mg] versus F [375/125 mg]” value ([1]; day 1)?
A: The value was 1.5185 (1.2747–1.8089).

Q: And the “GLS mean ratio (90% CI) of AUC0-τ, cohort G [750/250 mg] versus F [375/125 mg]” value ([1]; day 5)?
A: The value was 2.2387 (1.9942–2.5132).

Q: And the “GLS mean ratio (90% CI) of Cmax, cohort G [750/250 mg] versus F [375/125 mg]” value ([1]; day 5)?
A: The value was 2.1781 (1.9460–2.4379).

Q: And the Cmax [1, 3]?
A: Its Cmax is 29500 ng/mL.

Q: And the AUC [1, 3]?
A: The AUC was 484 µg·h/mL.

Q: And the Tmax [1, 3]?
A: The Tmax was 1.5 h.

Q: What about the Cmax [1, 4] of the same molecule?
A: Its Cmax is 22700 ng/mL.

Q: And the AUC [1, 4]?
A: The AUC was 351 µg·h/mL.

Q: And the Tmax [1, 4]?
A: The Tmax was 1.75 h.

Q: And the Cmax [1, 5]?
A: The Cmax was 44800 ng/mL.

Q: What about the AUC [1, 5] of the same molecule?
A: The AUC was 818 µg·h/mL.

Q: And the Tmax [1, 5]?
A: The Tmax was 3 h.

Q: And the Cmax [1, 6]?
A: The Cmax was 30400 ng/mL.

Q: What about the AUC [1, 6] of the same molecule?
A: The AUC was 597 µg·h/mL.

Q: And the Tmax [1, 6]?
A: The Tmax was 2 h.

Q: And the Cmax [1, 7]?
A: Its Cmax is 66300 ng/mL.

Q: And the AUC [1, 7]?
A: The AUC was 1340 µg·h/mL.

Q: What about the Tmax [1, 7] of the same molecule?
A: The Tmax was 2.5 h.

Q: What about the Cmax [1, 8] of the same molecule?
A: The Cmax was 26300 ng/mL.

Q: And the AUC [1, 8]?
A: Its AUC is 516 µg·h/mL.

Q: And the Tmax [1, 8]?
A: The Tmax was 1.5 h.

Q: What about the “reduction of Cmax by food intake” value ([2]; 250 mg single dose, fed vs fasted) of the same molecule?
A: Its value is 15%.

Q: And the “effect of food intake on AUC” value ([2]; 250 mg single dose, high-fat/high-calorie meal)?
A: The value was “did not impact; also recorded: did not affect”.

Q: And the “AUC0-inf, GLS mean (90% CI) ratio (fed/fasted)” value ([2]; Cohort C/250 mg single dose)?
A: The value was 1.0460 (1.0047/1.0891).

Q: And the “AUC0-last, GLS mean (90% CI) ratio (fed/fasted)” value ([2]; Cohort C/250 mg single dose)?
A: The value was 1.0470 (1.0061/1.0895).

Q: What about the “Cmax, GLS mean (90% CI) ratio (fed/fasted)” value ([2]; Cohort C/250 mg single dose) of the same molecule?
A: Its value is 0.8508 (0.7507/0.9644).

Q: What about the “t1/2,z, GLS mean (90% CI) ratio (fed/fasted)” value ([2]; Cohort C/250 mg single dose) of the same molecule?
A: The value was 0.9385 (0.8893/0.9905).

Q: What about the Tmax ([2]; 250 mg single dose, fasted state) of the same molecule?
A: Its Tmax is 2.5 h.

Q: What about the Tmax ([2]; 250 mg single dose, fed state) of the same molecule?
A: Its Tmax is 8 h.

Q: What about the AUC(0-inf) [2, 9] of the same molecule?
A: The AUC(0-inf) was 914 µg·h/mL.

Q: What about the AUC(0-t) [2, 9] of the same molecule?
A: Its AUC(0-t) is 907 µg·h/mL.

Q: What about the Cmax [2, 9] of the same molecule?
A: Its Cmax is 15200 ng/mL.

Q: And the half-life [2, 9]?
A: The half-life was 43.1 h.

Q: What about the AUC(0-inf) [2, 10] of the same molecule?
A: The AUC(0-inf) was 956 µg·h/mL.

Q: What about the AUC(0-t) [2, 10] of the same molecule?
A: The AUC(0-t) was 949 µg·h/mL.

Q: What about the Cmax [2, 10] of the same molecule?
A: The Cmax was 13000 ng/mL.

Q: And the half-life [2, 10]?
A: Its half-life is 40.5 h.

Q: What about the “antiviral activity in mice” value (SARS-CoV-2) of the same molecule?
A: Its value is “dose-dependent antiviral activity”.

Q: What about the CYP3A inhibition classification (CYP3A) of the same molecule?
A: Its CYP3A inhibition classification is “strong CYP3A inhibitor”.
